Measurements from patent US9085549B2, “Compounds for the treatment of neurodegenerative diseases” (ProteoTech Inc., priority 2011, dated 2015).
Read-outs that look alike come from different tables or passages of the source.

How the values were obtained:
[1] = system: BE-M17 human neuroblastoma cells stably transfected with A53T-mutant human α-synuclein; experiment: Thioflavin S staining of rotenone-induced α-synuclein aggregates in cells; assay type: cell-based; settings: for inhibition at 1 µM / inhibition at 5 µM / inhibition at 0.5 µM / inhibition at 2 µM: Homo sapiens, Neuroblastoma cell, read-out: Efficacy % Inhibition
α-synuclein = α-synuclein (Homo sapiens (Human), UniProt P37840); experiment: Circular dichroism spectroscopy: inhibition of α-synuclein β-sheet formation; assay type: biochemical; settings: read-out: Max % Inhibition
Procedure: For this purpose, α-synuclein was obtained from rPeptide as a lyophilized salt in 1 mg aliquots. Buffer components and other solvents were obtained from Sigma as A.C.S. Reagent grade or higher. […] After 24 hours, reactions were diluted 20-fold in PBS and CD spectra for each reaction were acquired on a Jasco J-810 spectropolarimeter using a 0.1 cm path length cell. All spectra were recorded with a step size of 0.1 nm, a bandwidth of 1 nm, and an α-synuclein concentration of 0.05 mg/ml. The spectra were trimmed at the shortest wavelength that still provided a dynode voltage less than 600V. The trimmed spectra were then subjected to a data processing routine beginning with noise reduction by Fourier transform followed by subtraction of a blank spectrum (vehicle only without α-synuclein). These blank corrected spectra were then zeroed at 260 nm and the units converted from millidegrees to specific ellipticity.
These percent β-sheet values were then used to provide the respective relative % inhibition of β-sheet induced by the compounds at given molar ratio of test compound:α-synuclein.

[2] = system: A53T α-synuclein-expressing BE-M17 cells; experiment: XTT assay: rotenone-induced cell death; assay type: cell-based, human
α-synuclein fibrils [3] = biological target: T1, α-synuclein fibrils (Homo sapiens (Human), UniProt P37840); experiment: Thioflavin T fluorometry: disruption/disaggregation of pre-formed α-synuclein fibrils; assay type: biochemical; settings: for Emax: 48 h, read-out: Max % Decrease
Procedure: The biological activity of the compounds provided herein as disruptors/inhibitors of Parkinson's disease α-synuclein fibrils was assessed by determining the efficacy of the compounds to cause a disassembly/disruption of pre-formed Parkinson's disease α-synuclein fibrils. In one study, Thioflavin T fluorometry was used to determine the effects of the compounds, and […]).
In one study, Thioflavin T fluorometry was used to determine the effects of the compounds on α-synuclein fibrils. In addition to test compounds, this experiment included a positive control compound and a negative control compound for reference.
For each compound, the % inhibition of Thioflavin T fluorescence (i.e. the decrease compared to control reactions containing α-synuclein alone) was plotted against the log of the concentration of the test compound (expressed as mole ratio relative to α-synuclein).

α-synuclein fibrils [4] = biological target: T1, α-synuclein fibrils; experiment: biochemical; settings: 48 h, read-out: Max % Decrease
[5] = biological target: human TauRD (Q244-E372 of Tau441) (Homo sapiens (Human), UniProt P10636); experiment: Thioflavin S fluorometry: inhibition of tau protein fibril formation; assay type: biochemical; settings: for IC50: read-out: ThioS (IC50)
Procedure: Methods Mol Biol, 2005. 299: p. 35-51]. […] (with shaking at 800-1000 rpm for day).
The Thio S fluorometry assay as a primary screening method to identify tau protein aggregation inhibitors from our small molecule library. Aggregated tau fibrils were prepared in the presence of equimolar ratios of TauRD and heparin (10 μM each) in 20 mM Na-phosphate buffer, pH7.4. The reaction mixture was incubated at 37° C. with shaking (800-1000 rpm) for 22-24 hr (or for 3 days). In the Thio S inhibition assays, test compounds at 0, 0.1, 1, 10 and 100 μM were added at time 0 into the reaction containing TauRD and heparin. The same reaction mixture (+/− increasing concentrations of compounds) but without TauRD were also set up in parallel to serve as background controls. For all test compounds background fluorescence readings were very low, usually <5% of those of the TauRD-containing wells. For each compound, the IC50 was calculated using Prism version 5 software (GraphPad Software) by nonlinear regression [(Log [inhibitor] vs. normalized response; variable slope)]. […] The Thio S screening results are summarized in Table 7 (in which the reactions were incubated for 22 hours).

TauRD = TauRD (Homo sapiens (Human), UniProt P10636); experiment: Circular dichroism spectroscopy: tau protein β-sheet formation
Procedure: CD spectroscopy was also performed to determine each compound's potency in inhibiting β-sheet secondary structure in TauRD under aggregation-prone conditions. The CD spectroscopy and Thio S assays were typically analyzed in parallel from the same sample preparation in order to correlate the results from two independent assays. CD spectra were taken from the samples containing +/− TauRD with increasing concentrations of compounds, and collected at 25° C. on a JASCO Model J-810 Spectropolarimeter. […] Since CD spectra reflect a total population of secondary structures (including random coil, β-sheet, and various intermediate conformers) of TauRD proteins under a given condition, the CD scores were established based on (1) the CD spectra derived from TauRD mixtures with different ratios of random coil/β-sheet; (2) time-dependent conformational changes of TauRD.

α-synuclein fibrils [6] = biological target: T1, α-synuclein fibrils
[7] = Homo sapiens; read-out: Max % Inhibition
[8] = Homo sapiens, read-out: Max % Inhibition
[9] = rotenone 0.5 μM, compound 0.5 μM
[10] = inhibition of β-sheet formation, 24 hours
[11] = Thioflavin T fluorescence, 2-day incubation
[12] = TauRD and heparin 10 μM each, incubated for 22 hours
[13] = Homo sapiens, read-out: % inhibition of cell death

Sequence of human TauRD (Q244-E372 of Tau441) (P10636 561-689): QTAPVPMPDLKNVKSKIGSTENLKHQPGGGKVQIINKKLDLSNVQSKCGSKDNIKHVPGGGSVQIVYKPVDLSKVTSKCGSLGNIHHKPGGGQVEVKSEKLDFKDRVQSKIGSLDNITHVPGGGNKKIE
Sequence of TauRD (P10636 561-689): as above

## Oc1ccc(-c2cn(-c3ccc(O)c(O)c3)nn2)cc1O [SA-68]
[1]; rotenone 0.5 μM, compound 1 μM
  inhibition at 1 µM: 69%
[1]; rotenone 0.5 μM, compound 5 μM
  inhibition at 5 µM: 73%
[1]; rotenone 2 μM, compound 5 μM
  inhibition at 5 µM: 44%
α-synuclein; 24 h
  Emax: 100%
[2]; Homo sapiens; read-out: IC50
  IC50: 24 µM
[2]; [7]
  Emax: 61%
α-synuclein fibrils [3]
  Emax: 100%

## O=C(/C=C/c1ccc(O)c(O)c1)c1cc(O)c(O)cc1Br [SA-96]
[1]
  inhibition at 0.5 µM: 73%
  inhibition at 1 µM: 82%
  inhibition at 2 µM: 81%
α-synuclein fibrils [4]
  Emax: 72%
α-synuclein; 24 h
  Emax: 100%
[2]; Homo sapiens
  IC50: 4.3 µM
[2]; [8]
  Emax: 61%
α-synuclein fibrils [3]
  Emax: 100%

## Oc1ccc(-c2nnc(-c3ccc(O)c(O)c3)o2)cc1O [SA-67]
[1]; [9]
  inhibition at 0.5 µM: 75%
[1]; rotenone 0.5 μM, compound 1 μM
  inhibition at 1 µM: 48%
[1]; rotenone 0.5 μM, compound 2 μM
  inhibition at 2 µM: 92%
α-synuclein fibrils [4]
  Emax: 25%
α-synuclein; [10]
  Emax: 100%
[2]; Homo sapiens; read-out: IC50
  IC50: 8.5 µM
[2]; [7]
  Emax: 44%
α-synuclein fibrils [3]; [11]
  Emax: 76%

## COc1ccc(-c2cc(-c3ccc(OC)c(OC)c3)c(-c3ccc(OC)c(OC)c3)s2)cc1OC [SA-60, 2,3,5-tri(3′,4′-dimethoxyphenyl)thiophene]
[5]; [12]
  ThioS (IC50, μM): no inhibition
[2]
  inhibition of rotenone-induced cell death (in words): significant, dose-dependent inhibition
[2]; Homo sapiens
  IC50: 12.5 µM
[2]; [8]
  Emax: 33%

## Oc1ccc(-c2cnc(-c3ccc(O)c(O)c3)o2)cc1O [SA-70]
α-synuclein fibrils [4]
  Emax: 88%
α-synuclein; 24 h
  Emax: 92%
[2]; Homo sapiens
  IC50: 5.6 µM
[2]; [8]
  Emax: 78%
α-synuclein fibrils [3]
  Emax: 100%

## Oc1ccc(-c2cc(Br)c(-c3ccc(O)c(O)c3)s2)cc1O [SA-59]
[1]
  Efficacy % Inhibition: 67%
  inhibition at 1 µM: 69%
  inhibition at 2 µM: 76%
  inhibition at 5 µM: 56%
[2]; Homo sapiens
  IC50: 3.1 µM
[2]; [8]
  Emax: 63%

## Oc1ccc(-c2nnc(-c3cc(O)c(O)cc3Br)o2)cc1O [SA-55]
[5]
  ThioS (IC50, μM): no inhibition
TauRD
  CD: −

## Oc1ccc(-c2ccc(Br)s2)cc1O [SA-62]
[5]; [12]
  ThioS (IC50, μM): no inhibition

## Oc1ccc(-c2cnco2)cc1O [SA-73]
α-synuclein fibrils [6]; Congo red binding, 2-day incubation
  Max % Decrease: 35%
α-synuclein fibrils [6]; Congo red binding, moles of test compound per mole of α-synuclein, 2 days
  EC50 (mole ratio): 1.1 mole ratio
[2]; 500 nM rotenone
  inhibition of rotenone-induced cell death (in words): significant, dose-dependent inhibition
[2]; inhibition of cell death, 500 nM rotenone
  Max % Inhibition: 77%
[2]; inhibition of cell death, 500 nM rotenone; read-out: IC50
  IC50: 35 to 75 µM
α-synuclein fibrils [3]; [11]
  Max % Decrease: 100%
α-synuclein fibrils [3]; Thioflavin T fluorescence, moles of test compound per mole of α-synuclein, 6.9 μM pre-formed fibrils, 2 days
  EC50 (mole ratio): 0.52 mole ratio
α-synuclein fibrils [3]; molar ratios 50:1 to 0.01:1
  disruption/disassembly of preformed α-synuclein fibrils (in words): dose-dependent and extensive disruption/disassembly

## Oc1ccc(-c2ccc(-c3cc(O)c(O)c(O)c3)s2)cc1O [SA-63, 5-(5-(3,4-dihydroxyphenyl)thiophen-2-yl)benzene-1,2,3-triol]
[5]; [12]
  IC50: 10.1 ± 0.56 µM
TauRD; semi-quantitative CD score, aggregated TauRD
  CD: +

## CC(=O)N1N=C(c2ccc(O)c(O)c2)CC1c1ccc(O)c(O)c1 (centres unmarked) [SA-98]
[1]
  inhibition at 0.5 µM: 74%
  inhibition at 1 µM: 76%
α-synuclein fibrils [4]
  Emax: 44%
α-synuclein; 24 h
  Emax: 100%
[2]; Homo sapiens
  IC50: 48 µM
[2]; [8]
  Emax: 56%
α-synuclein fibrils [3]
  Emax: 100%

## Oc1ccc(-c2nsc(-c3ccc(O)c(O)c3)n2)cc1O [SA-57]
α-synuclein fibrils [4]
  Emax: 66%
α-synuclein fibrils [6]; test compound:α-synuclein molar ratio of 5:1
  % inhibition of Congo red binding: 49%
α-synuclein fibrils [6]; test compound:α-synuclein molar ratio of 50:1
  % inhibition of Congo red binding: 66%
α-synuclein; [10]
  Emax: 100%
α-synuclein fibrils [3]; [11]
  Emax: 100%
α-synuclein fibrils [3]; test compound:α-synuclein molar ratio of 1:1
  % inhibition of Thioflavin T fluorescence: 83%
α-synuclein fibrils [3]; test compound:α-synuclein molar ratios ≧5:1
  % inhibition of Thioflavin T fluorescence: 97-100%

## Oc1ccc(Cc2cc(O)c(O)cc2I)cc1O [SA-93]
[1]; rotenone 2 μM, compound 2 μM
  inhibition at 2 µM: 45%
α-synuclein fibrils [4]
  Emax: 62%
α-synuclein; [10]
  Emax: 91%
[2]; Homo sapiens; read-out: IC50
  IC50: 19.8 µM
[2]; [7]
  Emax: 100%
α-synuclein fibrils [3]; [11]
  Emax: 100%

## Oc1ccc(-c2cnc(-c3ccc(O)c(O)c3)s2)cc1O [SA-64]
[5]; [12]
  IC50: 17.6 µM
α-synuclein fibrils [4]
  Emax: 85%
α-synuclein; [10]
  Emax: 100%
[2]; Homo sapiens; read-out: IC50
  IC50: 2.6 µM
[2]; [7]
  Emax: 100%
α-synuclein fibrils [3]; [11]
  Emax: 100%

## O=C(/C=C/c1ccc(O)c(O)c1)c1ccc(O)c(O)c1 [SA-94]
[1]
  inhibition at 0.5 µM: 70%
  inhibition at 1 µM: 63%
  inhibition at 2 µM: 85%
α-synuclein fibrils [4]
  Emax: 65%
α-synuclein; 24 h
  Emax: 95%
[2]; Homo sapiens
  IC50: 2.3 µM
[2]; [13]
  inhibition at 3.5 µM: 35%
  inhibition at 15 µM: 58%
[2]; [8]
  Emax: 58%
α-synuclein fibrils [3]
  Emax: 100%

## O=[N+]([O-])c1cc(-c2ccc(O)c(O)c2)ccc1-c1ccc(O)c(O)c1 [SA-99]
α-synuclein fibrils [4]
  Emax: 54%
α-synuclein; [10]
  Emax: 98%
α-synuclein fibrils [3]; [11]
  Emax: 100%

## Oc1ccc(Cc2cc(O)c(O)cc2O)cc1O [SA-97]
α-synuclein fibrils [4]
  Emax: 40%
α-synuclein; [10]
  Emax: 100%
[2]; Homo sapiens; read-out: IC50
  IC50: 39 µM
[2]; [7]
  Emax: 42%
α-synuclein fibrils [3]; [11]
  Emax: 99%

## O=C(/C=C/c1cc(O)c(O)cc1Br)c1ccc(O)c(O)c1 [SA-95]
[1]; [9]
  inhibition at 0.5 µM: 73%
[1]; rotenone 0.5 μM, compound 1 μM
  inhibition at 1 µM: 98%
[1]; rotenone 0.5 μM, compound 2 μM
  inhibition at 2 µM: 90%
[1]; rotenone 2 μM, compound 0.5 μM
  inhibition at 0.5 µM: 95%
α-synuclein fibrils [4]
  Emax: 64%
α-synuclein; [10]
  Emax: 97%
[2]; Homo sapiens; read-out: IC50
  IC50: 3.8 µM
[2]; [7]
  Emax: 63%
α-synuclein fibrils [3]; [11]
  Emax: 100%

## Oc1ccc(-c2nc3cc(O)c(O)cc3o2)cc1O [SA-54]
[1]; [9]
  inhibition at 0.5 µM: 80%
[1]; rotenone 0.5 μM, compound 2 μM
  inhibition at 2 µM: 83%
[1]; rotenone 2 μM, compound 1 μM
  inhibition at 1 µM: 56%
α-synuclein fibrils [4]
  Emax: 57%
α-synuclein; [10]
  Emax: 100%
α-synuclein fibrils [3]; [11]
  Emax: 98%
